# Laboratory results: paper PMC12638379, “An innovative approach to development of new pyrazolylquinolin-2-one hybrids as dual EGFR and BRAF^V600E inhibitors” (Molecular Diversity, 2025)
# Where two headings read alike, the source gives them in different places.
# Test system: NCI 60 cancer cell lines
# Test: NCI anticancer screening over a panel of 60 cancer cells, single concentration 10 µM
# Assay type: cell-based, human
# Settings: Homo sapiens, read-out: % Growth Inhibition (GI %)
# Protocol: Ten final compounds 4a–j and five intermediates 2a–e have been selected by the National Cancer Institute (NCI) for anticancer screening over a panel of 60 cancer cells that cover a variety of histological tissues, including the central nervous system, leukemia, lung, colon, kidney, ovary, breast, and prostate, using the protocol established by the National Cancer Institute (NCI). In a primary screening, each compound was screened at a concentration of 10 µM.
# Compounds 2a-e and 4a-j were selected by the National Cancer Institute (NCI) according to the protocol of the Compound Evaluation Branch of the National Cancer Institute, Bethesda, USA, for in vitro anticancer screening which refers in turn to apoptotic activity. The methodology of the NCI anticancer screening has been described in detail elsewhere (http://www.dtp.nci.nih.gov).
smiles,measurement,setting,value
"COc1ccc2[nH]c(=O)cc(-n3ncc(/C(C)=N/Nc4ccc(S(N)(=O)=O)cc4)c3C)c2c1 [Compound 4c, (E)-4-(2-(1-(1-(6-methoxy-2-oxo-1,2-dihydroquinolin-4-yl)-5-methyl-1H-pyrazol-4-yl)ethylidene)hydrazineyl)benzenesulfonamide]",inhibition at 10 µM,"786-0, Renal cancer 786-0, 10 μM",< 5%
same,inhibition at 10 µM,"A498, Renal cancer A498, 10 μM",7.1%
same,inhibition at 10 µM,"A549, Non-small cell lung cancer A549/ATCC, 10 μM",< 5%
same,inhibition at 10 µM,"ACHN, Renal cancer ACHN, 10 μM",< 5%
same,inhibition at 10 µM,"BT-549, Breast cancer BT-549, 10 μM",< 5%
same,inhibition at 10 µM,"CAKI-1, Renal cancer CAKI-1, 10 μM",< 5%
same,inhibition at 10 µM,"CCRF-CEM, Leukemia CCRF-CEM, 10 μM",< 5%
same,inhibition at 10 µM,"COLO 205, Colon cancer COLO 205, 10 μM",< 5%
same,inhibition at 10 µM,"DU-145, Prostate cancer DU-145, 10 μM",< 5%
same,inhibition at 10 µM,"HCC 2998, Colon cancer HCC-2998, 10 μM",< 5%
same,inhibition at 10 µM,"HCT-116, Colon cancer HCT-116, 10 μM",< 5%
same,inhibition at 10 µM,"HL-60, Leukemia HL-60(TB), 10 μM",< 5%
same,inhibition at 10 µM,"HOP-92, Non-small cell lung cancer HOP-92, 10 μM",< 5%
same,inhibition at 10 µM,"HT-29, Colon cancer HT29, 10 μM",< 5%
same,inhibition at 10 µM,"IGROV-1, Ovarian cancer IGROV1, 10 μM",< 5%
same,inhibition at 10 µM,"K562, Leukemia K-562, 10 μM",< 5%
same,inhibition at 10 µM,"KM12, Colon cancer KM12, 10 μM",< 5%
same,inhibition at 10 µM,"Leukemia SR, 10 μM",13%
same,inhibition at 10 µM,"MCF7, Breast cancer MCF7, 10 μM",6.69%
same,inhibition at 10 µM,"MDA-MB-231, Breast cancer MDA-MB-231/ATCC, 10 μM",8.98%
same,inhibition at 10 µM,"MDA-MB-435, Melanoma MDA-MB-435, 10 μM",< 5%
same,inhibition at 10 µM,"MDA-MB-468, Breast cancer MDA-MB-468, 10 μM",7.22%
same,inhibition at 10 µM,"MOLT-4, Leukemia MOLT-4, 10 μM",< 5%
same,inhibition at 10 µM,"Melanoma M14, 10 μM",< 5%
same,inhibition at 10 µM,"Melanoma MALM-3M, 10 μM",10.6%
same,inhibition at 10 µM,"NCI-H23, Non-small cell lung cancer NCI-H23, 10 μM",6%
same,inhibition at 10 µM,"NCI-H226, Non-small cell lung cancer NCI-H226, 10 μM",8.4%
same,inhibition at 10 µM,"NCI-H460, Non-small cell lung cancer NCI-H460, 10 μM",< 5%
same,inhibition at 10 µM,"NCI-H522, Non-small cell lung cancer NCI-H522, 10 μM",11.8%
same,inhibition at 10 µM,"OVCAR-3, Ovarian cancer OVCAR-3, 10 μM",< 5%
same,inhibition at 10 µM,"OVCAR-4, Ovarian cancer OVCAR-4, 10 μM",< 5%
same,inhibition at 10 µM,"OVCAR-5, Ovarian cancer OVCAR-5, 10 μM",< 5%
same,inhibition at 10 µM,"OVCAR-8, Ovarian cancer OVCAR-8, 10 μM",< 5%
same,inhibition at 10 µM,"Prostate cancer PC-3, 10 μM",< 5%
same,inhibition at 10 µM,"RPMI-8226, Leukemia RPMI-8226, 10 μM",< 5%
same,inhibition at 10 µM,"RXF 393, Renal cancer RXF 393, 10 μM",6.12%
same,inhibition at 10 µM,"SF-268, CNS Cancer SF-268, 10 μM",< 5%
same,inhibition at 10 µM,"SF-295, CNS Cancer SF-295, 10 μM",10.5%
same,inhibition at 10 µM,"SF-539, CNS Cancer SF-539, 10 μM",5.07%
same,inhibition at 10 µM,"SK-MEL-2, Melanoma SK-MEL-2, 10 μM",< 5%
same,inhibition at 10 µM,"SK-MEL-5, Melanoma SK-MEL-5, 10 μM",< 5%
same,inhibition at 10 µM,"SK-MEL-28, Melanoma SK-MEL-28, 10 μM",< 5%
same,inhibition at 10 µM,"SK-OV-3, Ovarian cancer SK-OV-3, 10 μM",< 5%
same,inhibition at 10 µM,"SN12C, Renal cancer SN12C, 10 μM",8.13%
same,inhibition at 10 µM,"SNB-19, CNS Cancer SNB-19, 10 μM",5.89%
same,inhibition at 10 µM,"SNB-75, CNS Cancer SNB-75, 10 μM",< 5%
same,inhibition at 10 µM,"SW-620, Colon cancer SW-620, 10 μM",< 5%
same,inhibition at 10 µM,"T47D, Breast cancer T-47D, 10 μM",12.1%
same,inhibition at 10 µM,"TK-10, Renal cancer TK-10, 10 μM",< 5%
same,inhibition at 10 µM,"U-251, CNS Cancer U251, 10 μM",< 5%
same,inhibition at 10 µM,"UACC-62, Melanoma UACC-62, 10 μM",5.15%
same,inhibition at 10 µM,"UACC-257, Melanoma UACC-257, 10 μM",< 5%
same,inhibition at 10 µM,"UO-31, Renal cancer UO-31, 10 μM",12.9%
